± gives the expanded uncertainty stated by the source.
Test: mn = molality of the nth substance listed, in mol/kg
Details: 100 kPa, Liquid, Capillary tube (Ostwald / Ubbelohde) method

OC[C@H]1O[C@@](CO)(O[C@H]2O[C@H](CO)[C@@H](O)[C@H](O)[C@H]2O)[C@@H](O[C@H]2O[C@H](CO)[C@@H](O)[C@H](O)[C@H]2O)[C@@H]1O + O
viscosity [mPa·s]
Details | m1 = 0.06211 | m1 = 0.07242 | m1 = 0.08043 | m1 = 0.09028 | m1 = 0.1045 | m1 = 0.1256 | m1 = 0.1344 | m1 = 0.1457
288.15 K | 1.237 ± 0.12 | 1.253 ± 0.13 | 1.266 ± 0.13 | 1.281 ± 0.13 | 1.303 ± 0.13 | 1.335 ± 0.13 | 1.348 ± 0.14 | 1.365 ± 0.14
298.15 K | 0.965 ± 0.097 | 0.977 ± 0.098 | 0.987 ± 0.099 | 0.998 ± 0.1 | 1.015 ± 0.1 | 1.039 ± 0.1 | 1.049 ± 0.11 | 1.061 ± 0.11
308.15 K | 0.777 ± 0.078 | 0.786 ± 0.079 | 0.793 ± 0.079 | 0.802 ± 0.08 | 0.815 ± 0.082 | 0.833 ± 0.083 | 0.841 ± 0.084 | 0.851 ± 0.085
318.15 K | 0.642 ± 0.064 | 0.65 ± 0.065 | 0.655 ± 0.066 | 0.663 ± 0.066 | 0.673 ± 0.067 | 0.687 ± 0.069 | 0.694 ± 0.07 | 0.701 ± 0.07

O=P([O-])(O)O.[Na+] [sodium dihydrogen phosphate] + O
viscosity [mPa·s]
Details | 288.15 K | 298.15 K | 308.15 K | 318.15 K
m1 = 0.5 | 1.427 ± 0.14 | 1.093 ± 0.11 | 0.88 ± 0.088 | 0.723 ± 0.073
m1 = 1 | 1.731 ± 0.17 | 1.332 ± 0.13 | 1.074 ± 0.11 | 0.875 ± 0.088
m1 = 1.5 | 2.139 ± 0.21 | 1.63 ± 0.16 | 1.267 ± 0.13 | 1.051 ± 0.11
m1 = 2 | 2.65 ± 0.27 | 1.987 ± 0.2 | 1.457 ± 0.15 | 1.257 ± 0.13

N.O=P(O)(O)O [ammonium dihydrogen phosphate] + O
viscosity [mPa·s]
Details | 288.15 K | 298.15 K | 308.15 K | 318.15 K
m1 = 0.5 | 1.29 ± 0.13 | 1.014 ± 0.1 | 0.822 ± 0.082 | 0.659 ± 0.066
m1 = 1 | 1.472 ± 0.15 | 1.172 ± 0.12 | 0.942 ± 0.094 | 0.741 ± 0.074
m1 = 1.5 | 1.672 ± 0.17 | 1.332 ± 0.13 | 1.049 ± 0.11 | 0.822 ± 0.082
m1 = 2 | 1.831 ± 0.18 | 1.463 ± 0.15 | 1.161 ± 0.12 | 0.908 ± 0.091

OC[C@H]1O[C@@H](O[C@H]2[C@H](O)[C@@H](O)[C@H](O)O[C@@H]2CO)[C@H](O)[C@@H](O)[C@@H]1O [D-cellobiose] + O
viscosity [mPa·s]
Details | m1 = 0.0502 | m1 = 0.06216 | m1 = 0.07229 | m1 = 0.08229 | m1 = 0.09269 | m1 = 0.1031 | m1 = 0.1292 | m1 = 0.152
288.15 K | 1.19 ± 0.12 | 1.202 ± 0.12 | 1.212 ± 0.12 | 1.222 ± 0.12 | 1.233 ± 0.12 | 1.243 ± 0.12 | 1.269 ± 0.13 | 1.291 ± 0.13
298.15 K | 0.929 ± 0.093 | 0.938 ± 0.094 | 0.946 ± 0.095 | 0.953 ± 0.095 | 0.961 ± 0.096 | 0.969 ± 0.097 | 0.988 ± 0.099 | 1.005 ± 0.1
308.15 K | 0.749 ± 0.075 | 0.756 ± 0.076 | 0.762 ± 0.076 | 0.768 ± 0.077 | 0.774 ± 0.078 | 0.78 ± 0.078 | 0.795 ± 0.08 | 0.808 ± 0.081
318.15 K | 0.62 ± 0.062 | 0.625 ± 0.063 | 0.63 ± 0.063 | 0.635 ± 0.064 | 0.64 ± 0.064 | 0.644 ± 0.065 | 0.656 ± 0.066 | 0.666 ± 0.067

O=C[C@@H](O)[C@@H](O)[C@H](O)[C@H](O)CO [D-mannose] + O
viscosity [mPa·s]
Details | m1 = 0.0537 | m1 = 0.07266 | m1 = 0.08053 | m1 = 0.08978 | m1 = 0.1058 | m1 = 0.1176
288.15 K | 1.169 ± 0.12 | 1.179 ± 0.12 | 1.184 ± 0.12 | 1.189 ± 0.12 | 1.199 ± 0.12 | 1.206 ± 0.12
298.15 K | 0.912 ± 0.091 | 0.92 ± 0.092 | 0.924 ± 0.093 | 0.928 ± 0.093 | 0.934 ± 0.094 | 0.939 ± 0.094
308.15 K | 0.736 ± 0.074 | 0.741 ± 0.074 | 0.744 ± 0.075 | 0.747 ± 0.075 | 0.753 ± 0.075 | 0.756 ± 0.076
318.15 K | 0.609 ± 0.061 | 0.614 ± 0.062 | 0.616 ± 0.062 | 0.618 ± 0.062 | 0.622 ± 0.062 | 0.625 ± 0.063

O=P([O-])(O)O.[K+] [monopotassium phosphate] + O
viscosity [mPa·s]
Details | 288.15 K | 298.15 K | 308.15 K | 318.15 K
m1 = 0.25 | 1.236 ± 0.12 | 0.972 ± 0.097 | 0.777 ± 0.078 | 0.633 ± 0.063
m1 = 0.5 | 1.301 ± 0.13 | 1.025 ± 0.1 | 0.815 ± 0.082 | 0.666 ± 0.067
m1 = 1 | 1.539 ± 0.15 | 1.159 ± 0.12 | 0.939 ± 0.094 | 0.763 ± 0.077
m1 = 1.25 | 1.636 ± 0.16 | 1.294 ± 0.13 | 1.027 ± 0.1 | 0.84 ± 0.084

O=P([O-])([O-])[O-].[K+].[K+].[K+] [tripotassium phosphate] + O
viscosity [mPa·s]
Details | 288.15 K | 298.15 K | 308.15 K | 318.15 K
m1 = 0.5 | 1.414 ± 0.14 | 1.133 ± 0.11 | 0.915 ± 0.092 | 0.708 ± 0.071
m1 = 1 | 1.7 ± 0.17 | 1.349 ± 0.14 | 1.09 ± 0.11 | 0.838 ± 0.084
m1 = 1.5 | 2.004 ± 0.2 | 1.598 ± 0.16 | 1.281 ± 0.13 | 1.003 ± 0.1
m1 = 2 | 2.299 ± 0.23 | 1.806 ± 0.18 | 1.441 ± 0.14 | 1.116 ± 0.11

OC[C@H]1O[C@H](OC[C@H]2O[C@H](O[C@]3(CO)O[C@H](CO)[C@@H](O)[C@@H]3O)[C@H](O)[C@@H](O)[C@@H]2O)[C@H](O)[C@@H](O)[C@H]1O [D-raffinose] + O
viscosity [mPa·s]
Details | m1 = 0.0515 | m1 = 0.06262 | m1 = 0.08002 | m1 = 0.09691 | m1 = 0.1085 | m1 = 0.1133 | m1 = 0.1273 | m1 = 0.1387
288.15 K | 1.227 ± 0.12 | 1.246 ± 0.12 | 1.275 ± 0.13 | 1.303 ± 0.13 | 1.322 ± 0.13 | 1.33 ± 0.13 | 1.353 ± 0.14 | 1.371 ± 0.14
298.15 K | 0.957 ± 0.096 | 0.971 ± 0.097 | 0.993 ± 0.099 | 1.014 ± 0.1 | 1.028 ± 0.1 | 1.034 ± 0.1 | 1.051 ± 0.11 | 1.065 ± 0.11
308.15 K | 0.771 ± 0.077 | 0.782 ± 0.078 | 0.799 ± 0.08 | 0.816 ± 0.082 | 0.827 ± 0.083 | 0.831 ± 0.083 | 0.845 ± 0.085 | 0.855 ± 0.086
318.15 K | 0.637 ± 0.064 | 0.646 ± 0.065 | 0.659 ± 0.066 | 0.672 ± 0.067 | 0.681 ± 0.068 | 0.684 ± 0.069 | 0.695 ± 0.07 | 0.703 ± 0.07

OC[C@H]1O[C@@](CO)(O[C@H]2O[C@H](CO)[C@@H](O)[C@H](O)[C@H]2O)[C@@H](O)[C@@H]1O [D-sucrose] + O
viscosity [mPa·s]
Details | m1 = 0.05768 | m1 = 0.06994 | m1 = 0.07682 | m1 = 0.08384 | m1 = 0.09221 | m1 = 0.1103 | m1 = 0.1237 | m1 = 0.1437
288.15 K | 1.205 ± 0.12 | 1.219 ± 0.12 | 1.227 ± 0.12 | 1.235 ± 0.12 | 1.244 ± 0.12 | 1.265 ± 0.13 | 1.28 ± 0.13 | 1.302 ± 0.13
298.15 K | 0.941 ± 0.094 | 0.951 ± 0.095 | 0.957 ± 0.096 | 0.963 ± 0.096 | 0.97 ± 0.097 | 0.986 ± 0.099 | 0.997 ± 0.1 | 1.014 ± 0.1
308.15 K | 0.758 ± 0.076 | 0.766 ± 0.077 | 0.771 ± 0.077 | 0.776 ± 0.078 | 0.781 ± 0.078 | 0.793 ± 0.079 | 0.802 ± 0.08 | 0.815 ± 0.082
318.15 K | 0.627 ± 0.063 | 0.634 ± 0.064 | 0.637 ± 0.064 | 0.641 ± 0.064 | 0.645 ± 0.065 | 0.655 ± 0.066 | 0.662 ± 0.066 | 0.672 ± 0.067

O=C[C@H](O)[C@@H](O)[C@H](O)CO [D-xylose] + O
viscosity [mPa·s]
Details | m1 = 0.05317 | m1 = 0.06636 | m1 = 0.07781 | m1 = 0.08585 | m1 = 0.1009 | m1 = 0.1145
288.15 K | 1.159 ± 0.12 | 1.165 ± 0.12 | 1.169 ± 0.12 | 1.173 ± 0.12 | 1.179 ± 0.12 | 1.185 ± 0.12
298.15 K | 0.906 ± 0.091 | 0.91 ± 0.091 | 0.914 ± 0.092 | 0.917 ± 0.092 | 0.921 ± 0.092 | 0.925 ± 0.093
308.15 K | 0.732 ± 0.073 | 0.735 ± 0.074 | 0.737 ± 0.074 | 0.739 ± 0.074 | 0.743 ± 0.074 | 0.746 ± 0.075
318.15 K | 0.606 ± 0.061 | 0.608 ± 0.061 | 0.61 ± 0.061 | 0.612 ± 0.061 | 0.614 ± 0.062 | 0.618 ± 0.062

OC[C@H]1OC(O)C[C@@H](O)[C@@H]1O (stereo partly drawn) [2-deoxy-D-glucose] + O
viscosity [mPa·s]
Details | m1 = 0.04241 | m1 = 0.05017 | m1 = 0.05842 | m1 = 0.08671 | m1 = 0.09745 | m1 = 0.1223 | m1 = 0.141
288.15 K | 1.16 ± 0.12 | 1.164 ± 0.12 | 1.168 ± 0.12 | 1.182 ± 0.12 | 1.188 ± 0.12 | 1.2 ± 0.12 | 1.21 ± 0.12
298.15 K | 0.907 ± 0.091 | 0.909 ± 0.091 | 0.913 ± 0.091 | 0.923 ± 0.092 | 0.927 ± 0.093 | 0.936 ± 0.094 | 0.943 ± 0.094
308.15 K | 0.732 ± 0.073 | 0.734 ± 0.074 | 0.736 ± 0.074 | 0.744 ± 0.075 | 0.747 ± 0.075 | 0.754 ± 0.076 | 0.76 ± 0.076
318.15 K | 0.606 ± 0.061 | 0.608 ± 0.061 | 0.609 ± 0.061 | 0.616 ± 0.062 | 0.618 ± 0.062 | 0.624 ± 0.063 | 0.628 ± 0.063
